According to ChEMBL document CHEMBL3797131, “Discovery and optimization of 1,7-disubstituted-2,2-dimethyl-2,3-dihydroquinazolin-4(1H)-ones as potent and selective PKCθ inhibitors” (Bioorg Med Chem, 2016):

Experiments:
Type in all cases: ADME, organism-based
[1] = Oral bioavailability in Balb/c mouse at 1 mg/kg; conditions: in vivo
[2] = AUC in Balb/c mouse at 1 mg/kg, po; conditions: in vivo
[3] = Clearance in Balb/c mouse at 1 mg/kg, po and 0.1 mg/kg, iv; conditions: in vivo
[4] = Plasma concentration in Balb/c mouse at 10 mg/kg to 100 mg/kg, po after 4 hrs

bioavailability [1] [%] | AUC [2] [ng·h/mL] | clearance [3] [mL/min/kg] | concentration at 4 h [4] [nM] | SMILES
7 | 11 | 107 |  | C[C@@H](c1ccccc1)N1c2cc(-n3c(=O)[nH]c4ncccc43)ccc2C(=O)NC1(C)C
12 | 16 | 143 |  | CC1(C)NC(=O)c2ccc(-n3c(=O)[nH]c4ncccc43)cc2N1Cc1ccccc1
28 | 172 | 27.3 | 2000 | C[C@H](c1ccccc1)N1c2cc(-n3c(=O)[nH]c4ncccc43)ccc2C(=O)NC1(C)C
